Assay [1] has as its target PLK4 (h) (Homo sapiens, UniProt O00444). The assay is described as follows: PLK-4 human kinase inhibition, scintillation proximity assay (SPA). The format is biochemical. The note with it: read-out: PLK4 pIC50 (converted). How it is done: (§1) In the SPA technology the activity of the kinase of interest is measured using an appropriate biotinylated substrate that is incubated with the aforementioned kinase protein in the presence of (^33P) radiolabeled ATP. (^33P) Phosphorylation of the substrate is subsequently measured through binding of the phosphorylated substrate to streptavidine coated beads that are based on the scintillant poly(vinyl toluene) (PVT-Beads). The scintillation intensity is detected by imaging on Leadseeker.
(§2) All kinases are pre-diluted to a 10× working concentration prior to addition into the assay. The composition of the dilution buffer for each kinase is detailed below.
(6.0 μCi/ml). After incubation of 60 minutes at room temperature, the reaction is stopped by addition of 40 μL of stop solution containing 8.7 mM EDTA, BSA 0.17%, 0.17% Triton X-100, 1.7 mg/ml SPA beads (GE-healthcare). The plate is centrifuged and read for Scintillation imaging on Leadseeker.
On the technique in general: In a scintillation proximity assay essentially only radioactivity close to the scintillant gives light.

Assay [2] has as its target AuroraB (h) (Homo sapiens, UniProt Q96GD4). The assay is described as follows: Aurora-B human kinase inhibition, SPA. The format is biochemical. The note with it: read-out: AuroraB pIC50 (converted). Here is the method: (§3) The in vitro inhibition of a panel of kinases was assessed using either the scintillation proximity assay (SPA) as described by Cook, N. D. et al., Advances in Experimental Medicine and Biology (1991), 36; p. 525-528.
as §1, §2
In a final reaction volume of 30 μl, AuroraB (h) (0.5 μg/ml) is incubated with 60 mM Hepes pH 7.5, 3 mM MgCl2, 3 mM MnCl2, 3 μM Na3VO4, 0.05 mg/ml PEG, 2 mM DTT, 3 μM Biotin-[…]-OH, 0.5 μM ATP and 2.2 nM [γ-^33P-ATP] (6.8 μCi/ml). After incubation of 60 minutes at room temperature, the reaction is stopped by addition of 40 μL of stop solution containing 8.7 mM EDTA, BSA 0.17%, 0.17% Triton X-100, 5 mg/ml SPA beads (GE-healthcare). The plate is centrifuged and read for Scintillation imaging on Leadseeker.

For assay [3], the target named is GSK3β (h) (Homo sapiens, UniProt P49841). The assay is described as follows: GSK-3β human kinase inhibition, SPA. The format is biochemical. To be noted: read-out: GSK3b pIC50 (converted). How it is done: as §3, §1, §2
Sequence of GSK3β (h) (P49841 whole entry): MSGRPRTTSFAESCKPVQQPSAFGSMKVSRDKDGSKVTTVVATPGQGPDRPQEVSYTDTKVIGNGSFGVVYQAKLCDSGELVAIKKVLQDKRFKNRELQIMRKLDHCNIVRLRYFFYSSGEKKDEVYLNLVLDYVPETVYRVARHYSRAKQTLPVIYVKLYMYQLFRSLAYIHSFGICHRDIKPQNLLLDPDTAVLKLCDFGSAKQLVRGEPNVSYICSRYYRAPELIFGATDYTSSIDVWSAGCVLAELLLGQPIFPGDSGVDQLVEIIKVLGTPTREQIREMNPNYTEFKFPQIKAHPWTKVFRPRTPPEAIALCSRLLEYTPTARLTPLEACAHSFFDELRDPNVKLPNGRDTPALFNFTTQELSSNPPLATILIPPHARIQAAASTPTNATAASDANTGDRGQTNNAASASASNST
In a final reaction volume of 30 μl, GSK3β (h) (1 μg/ml) is incubated with 25 mM Tris pH 7.4, 10 mM MgCl2, 1 mM DTT, 1 μM peptide Biotin-[…]-OH, 1 μM ATP and 2 nM [γ-^33P-ATP] (6.0 μCi/ml). After incubation of 60 minutes at room temperature, the reaction is stopped by addition of 40 μL of stop solution containing 8.7 mM EDTA, BSA 0.17%, 0.17% Triton X-100, 6.25 mg/ml SPA beads (GE-healthcare). The plate is centrifuged and read for Scintillation imaging on Leadseeker.

Assay [4] has as its target CDK1/CyclinB (h) (Homo sapiens, UniProt P06493). The assay is described as follows: CDK1/CyclinB human kinase inhibition, Invitrogen's FRET assay (Z'lyte). The format is biochemical. The note with it: read-out: CDK1 pIC50 (converted). How it is done:
as §3, §2
In a final reaction volume of 10 μl, CDK1/CyclinB (h) (0.2 μg/ml) is incubated with 50 mM Hepes pH 7.5, 10 mM MgCl2, 1 mM EGTA, 0.01% Brij-35, 2 μM Z'lyte Ser/Thr peptide 12 and 10 μM ATP (Invitrogen's FRET assay). After incubation of 60 minutes at room temperature, the reaction is stopped by addition of 5 μL development reagent containing protease mix. After 60 minutes room temperature the development reaction is stopped by adding 5 μl stop solution. The plate is then read in fluorescence plate reader with excitation: 390 nm and dual emission: 460 and 538 nm. Emission ratio is determined to the formula=Emission signal intensity at 460 nm/Emission signal intensity at 538 nm.

In assay [5] the target is PLK1 T210D (h) (Homo sapiens, UniProt P53350, T210D). The experiment in a line: PLK1 human kinase inhibition, SPA. Type of assay: biochemical. The note with it: read-out: PLK1 pIC50 (converted). How it is done: as §3, §1, §2
Sequence of PLK1 T210D (h) (P53350 whole entry T210D): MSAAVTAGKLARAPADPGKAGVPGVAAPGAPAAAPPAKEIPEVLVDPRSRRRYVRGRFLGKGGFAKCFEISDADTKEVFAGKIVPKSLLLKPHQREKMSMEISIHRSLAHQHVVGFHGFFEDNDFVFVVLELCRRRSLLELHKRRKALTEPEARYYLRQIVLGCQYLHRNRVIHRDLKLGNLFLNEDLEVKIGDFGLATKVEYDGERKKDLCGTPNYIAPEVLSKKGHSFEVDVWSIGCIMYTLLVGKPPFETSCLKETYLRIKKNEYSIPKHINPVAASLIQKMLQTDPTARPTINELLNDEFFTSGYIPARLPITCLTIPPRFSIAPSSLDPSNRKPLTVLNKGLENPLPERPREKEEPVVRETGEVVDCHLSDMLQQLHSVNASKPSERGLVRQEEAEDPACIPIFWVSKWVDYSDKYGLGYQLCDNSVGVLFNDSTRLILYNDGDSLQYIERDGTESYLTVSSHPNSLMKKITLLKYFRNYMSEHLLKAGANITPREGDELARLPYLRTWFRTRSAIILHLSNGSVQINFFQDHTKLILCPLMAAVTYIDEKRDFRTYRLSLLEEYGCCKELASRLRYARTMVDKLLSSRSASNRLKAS
In a final reaction volume of 30 μl, PLK1 T210D (h) (0.125 ng/ml) is incubated with 50 mM Hepes pH 8.0, 2 mM MnCl2, 1 mM DTT, 2 μM of peptide Biotin-Tds linker-[…], 0.1 μM ATP and 2 nM [γ-^33P-ATP] (6.0 μCi/ml). After incubation of 40 minutes at room temperature, the reaction is stopped by addition of 40 μL of stop solution containing 8.7 mM EDTA, BSA 0.17%, 0.17% Triton X-100, 25 mg/ml SPA beads (GE-healthcare). The plate is centrifuged and read for Scintillation imaging on Leadseeker.

For assay [6], the target named is PLK2 (h) (Homo sapiens, UniProt Q9NYY3). The experiment in a line: PLK2 human kinase inhibition, SPA. The format is biochemical. To be noted: read-out: PLK2 pIC50 (converted). Here is the method:
as §3, §1, §2
In a final reaction volume of 30 μl, PLK2 (h) (30 μg/ml) is incubated with 50 mM Hepes pH 8.0, 2 mM MnCl2, 1 mM DTT, 2 μM of peptide Biotin-Tds linker-[…], 0.1 μM ATP and 2 nM [γ-^33P-ATP] (6.0 μCi/ml). After incubation of 20 minutes at room temperature, the reaction is stopped by addition of 40 μL of stop solution containing 8.7 mM EDTA, BSA 0.17%, 0.17% Triton X-100, 25 mg/ml SPA beads (GE-healthcare). The plate is centrifuged and read for Scintillation imaging on Leadseeker.

In assay [7] the target is PLK3 (h) (Homo sapiens, UniProt Q9H4B4). The assay is described as follows: PLK3 human kinase inhibition, SPA. Type of assay: biochemical. The note with it: read-out: PLK3 pIC50 (converted). How it is done:
as §3, §1, §2
In a final reaction volume of 30 μl, PLK3 (h) (30 μg/ml) is incubated with 50 mM Hepes pH 8.0, 2 mM MnCl2, 1 mM DTT, 2 μM of peptide Biotin-Tds linker-[…], 0.1 μM ATP and 2 nM [γ-^33P-ATP] (6.0 μCi/ml). After incubation of 20 minutes at room temperature, the reaction is stopped by addition of 40 μL of stop solution containing 8.7 mM EDTA, BSA 0.17%, 0.17% Triton X-100, 25 mg/ml SPA beads (GE-healthcare). The plate is centrifuged and read for Scintillation imaging on Leadseeker.

Assay [8] has as its system HCT-116. The experiment in a line: Cellular proliferation assay (Alamar blue), HCT-116. The format is cell-based. To be noted: Homo sapiens, 10% FCS, 72 hours with compound, Alamar blue 4 h. How it is done:
(§4) […] functional properties of these compounds were tested in cellular proliferation assays on a panel of different cell lines in the presence of 10% FCS serum (37° C. and 5% (v/v) CO2). In a first step these cells were seeded and incubated for 24 hours in the absence of compound. In the second step the cells were incubated for 72 hours with the compounds to be tested for 72 hours. The viable cell number was finally assessed in a standard Alamar blue cell viability assay.
(§5) The viable cell number was assessed by incubation for either 4 h (HCT-116, H1299) 6 h (U87-MG) or 24 h (A2780, MDA-MB-231) with Alamar blue (Resazurin 9 μg/ml, K-Ferrocyanide 90 μM, K-Ferricyanide 90 μM) and the converted fluorescent product was quantified on a fluorescent plate reader (544 nm/590 nm). Effect of the compounds is calculated as of on control cells.
A general note: The colour change of resazurin is a common sign of viable cells or microbes.

For assay [9], the system named is U87-MG. The assay is described as follows: Cellular proliferation assay (Alamar blue), U87-MG. Type of assay: cell-based. To be noted: Homo sapiens, U-87 MG; 10% FCS; 72 hours with compound; Alamar blue 6 h; read-out: U87-MG (cellular proliferation assay, Table 4) (converted). How it is done:
as §4, §5

In assay [10] the test system is A2780. The assay is described as follows: Cellular proliferation assay (Alamar blue), A2780. The note with it: Homo sapiens, 10% FCS, 72 hours with compound, Alamar blue 24 h, read-out: A2780 (cellular proliferation assay, Table 4) (converted). The format is cell-based. Here is the method: as §4, §5
Assay [11] concerns H1299. The assay is described as follows: Cellular proliferation assay (Alamar blue), H1299. Type of assay: cell-based. To be noted: Homo sapiens, NCI-H1299; 10% FCS; 72 hours with compound; Alamar blue 4 h. Here is the method: as §4, §5
The test system of assay [12] is MDA-MB-231. The assay is described as follows: Cellular proliferation assay (Alamar blue), MDA-MB-231. The format is cell-based. To be noted: Homo sapiens, 10% FCS, 72 hours with compound, Alamar blue 24 h, read-out: MDA/MB231 (cellular proliferation assay, Table 4) (converted). How it is done:
as §4, §5

Sequence of PLK3 (h) (Q9H4B4 whole entry): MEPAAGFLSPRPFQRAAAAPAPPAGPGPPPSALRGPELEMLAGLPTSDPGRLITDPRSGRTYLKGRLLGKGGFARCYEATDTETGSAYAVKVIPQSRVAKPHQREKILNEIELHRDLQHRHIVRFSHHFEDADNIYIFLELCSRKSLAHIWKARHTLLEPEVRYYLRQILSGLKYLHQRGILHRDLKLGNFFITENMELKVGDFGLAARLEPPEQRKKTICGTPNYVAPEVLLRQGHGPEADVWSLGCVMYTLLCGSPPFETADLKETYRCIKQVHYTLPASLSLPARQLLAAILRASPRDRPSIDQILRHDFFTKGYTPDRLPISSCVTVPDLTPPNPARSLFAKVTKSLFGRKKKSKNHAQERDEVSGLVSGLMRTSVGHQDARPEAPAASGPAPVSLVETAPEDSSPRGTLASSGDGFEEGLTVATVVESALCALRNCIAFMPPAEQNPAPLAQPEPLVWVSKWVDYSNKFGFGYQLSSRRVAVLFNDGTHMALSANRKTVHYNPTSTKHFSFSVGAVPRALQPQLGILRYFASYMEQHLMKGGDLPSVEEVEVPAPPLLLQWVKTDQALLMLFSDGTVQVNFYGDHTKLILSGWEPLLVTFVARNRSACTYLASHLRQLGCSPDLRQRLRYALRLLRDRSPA
Sequence of CDK1/CyclinB (h) (P06493 whole entry): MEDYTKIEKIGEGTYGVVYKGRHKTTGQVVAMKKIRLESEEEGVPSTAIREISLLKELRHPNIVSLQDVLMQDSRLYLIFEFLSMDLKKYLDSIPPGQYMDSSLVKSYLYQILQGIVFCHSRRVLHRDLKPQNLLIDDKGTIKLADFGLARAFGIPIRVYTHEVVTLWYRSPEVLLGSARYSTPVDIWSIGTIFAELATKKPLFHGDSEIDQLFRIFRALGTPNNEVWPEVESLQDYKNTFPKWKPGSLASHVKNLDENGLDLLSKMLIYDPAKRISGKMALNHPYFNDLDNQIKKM
Sequence of CDK1/CyclinB (h) (P14635 whole entry partner): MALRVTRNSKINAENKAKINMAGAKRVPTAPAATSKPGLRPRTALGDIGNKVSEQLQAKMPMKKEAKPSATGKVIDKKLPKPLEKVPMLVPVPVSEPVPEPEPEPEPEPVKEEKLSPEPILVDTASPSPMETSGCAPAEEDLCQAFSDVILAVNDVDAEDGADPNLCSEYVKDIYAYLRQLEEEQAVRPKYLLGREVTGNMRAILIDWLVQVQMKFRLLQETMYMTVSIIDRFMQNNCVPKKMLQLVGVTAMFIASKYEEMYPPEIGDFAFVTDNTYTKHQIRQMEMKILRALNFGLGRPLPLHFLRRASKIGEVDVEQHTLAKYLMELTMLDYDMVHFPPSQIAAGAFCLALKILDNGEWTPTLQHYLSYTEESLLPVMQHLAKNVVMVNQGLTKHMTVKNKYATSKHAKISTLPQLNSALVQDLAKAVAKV
Sequence of PLK2 (h) (Q9NYY3 whole entry): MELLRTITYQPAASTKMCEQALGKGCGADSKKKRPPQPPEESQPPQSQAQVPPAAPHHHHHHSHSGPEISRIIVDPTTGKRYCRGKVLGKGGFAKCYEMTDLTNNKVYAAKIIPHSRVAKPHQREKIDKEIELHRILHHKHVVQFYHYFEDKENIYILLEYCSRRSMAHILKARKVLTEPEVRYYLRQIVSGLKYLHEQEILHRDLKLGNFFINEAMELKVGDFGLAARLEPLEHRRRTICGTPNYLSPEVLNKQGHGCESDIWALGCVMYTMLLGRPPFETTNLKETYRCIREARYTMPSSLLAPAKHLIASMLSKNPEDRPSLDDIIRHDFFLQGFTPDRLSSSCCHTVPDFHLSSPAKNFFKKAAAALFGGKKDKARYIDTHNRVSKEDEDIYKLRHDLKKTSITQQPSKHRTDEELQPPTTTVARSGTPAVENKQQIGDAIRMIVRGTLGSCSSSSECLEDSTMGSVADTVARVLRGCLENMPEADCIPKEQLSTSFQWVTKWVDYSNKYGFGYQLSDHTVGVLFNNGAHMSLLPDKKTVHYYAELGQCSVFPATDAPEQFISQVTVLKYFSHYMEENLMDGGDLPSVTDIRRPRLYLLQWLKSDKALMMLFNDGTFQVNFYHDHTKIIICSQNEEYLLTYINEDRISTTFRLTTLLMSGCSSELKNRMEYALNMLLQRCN
Sequence of AuroraB (h) (Q96GD4 whole entry): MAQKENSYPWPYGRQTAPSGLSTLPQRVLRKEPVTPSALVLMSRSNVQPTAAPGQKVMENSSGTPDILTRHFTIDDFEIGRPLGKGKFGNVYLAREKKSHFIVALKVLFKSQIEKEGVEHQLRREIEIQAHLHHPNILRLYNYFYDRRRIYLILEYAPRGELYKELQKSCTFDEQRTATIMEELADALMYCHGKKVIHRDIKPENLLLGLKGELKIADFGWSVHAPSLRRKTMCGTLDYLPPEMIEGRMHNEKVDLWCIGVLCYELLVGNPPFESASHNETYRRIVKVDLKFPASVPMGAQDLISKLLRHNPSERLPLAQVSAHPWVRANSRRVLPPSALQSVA
Sequence of PLK4 (h) (O00444 whole entry): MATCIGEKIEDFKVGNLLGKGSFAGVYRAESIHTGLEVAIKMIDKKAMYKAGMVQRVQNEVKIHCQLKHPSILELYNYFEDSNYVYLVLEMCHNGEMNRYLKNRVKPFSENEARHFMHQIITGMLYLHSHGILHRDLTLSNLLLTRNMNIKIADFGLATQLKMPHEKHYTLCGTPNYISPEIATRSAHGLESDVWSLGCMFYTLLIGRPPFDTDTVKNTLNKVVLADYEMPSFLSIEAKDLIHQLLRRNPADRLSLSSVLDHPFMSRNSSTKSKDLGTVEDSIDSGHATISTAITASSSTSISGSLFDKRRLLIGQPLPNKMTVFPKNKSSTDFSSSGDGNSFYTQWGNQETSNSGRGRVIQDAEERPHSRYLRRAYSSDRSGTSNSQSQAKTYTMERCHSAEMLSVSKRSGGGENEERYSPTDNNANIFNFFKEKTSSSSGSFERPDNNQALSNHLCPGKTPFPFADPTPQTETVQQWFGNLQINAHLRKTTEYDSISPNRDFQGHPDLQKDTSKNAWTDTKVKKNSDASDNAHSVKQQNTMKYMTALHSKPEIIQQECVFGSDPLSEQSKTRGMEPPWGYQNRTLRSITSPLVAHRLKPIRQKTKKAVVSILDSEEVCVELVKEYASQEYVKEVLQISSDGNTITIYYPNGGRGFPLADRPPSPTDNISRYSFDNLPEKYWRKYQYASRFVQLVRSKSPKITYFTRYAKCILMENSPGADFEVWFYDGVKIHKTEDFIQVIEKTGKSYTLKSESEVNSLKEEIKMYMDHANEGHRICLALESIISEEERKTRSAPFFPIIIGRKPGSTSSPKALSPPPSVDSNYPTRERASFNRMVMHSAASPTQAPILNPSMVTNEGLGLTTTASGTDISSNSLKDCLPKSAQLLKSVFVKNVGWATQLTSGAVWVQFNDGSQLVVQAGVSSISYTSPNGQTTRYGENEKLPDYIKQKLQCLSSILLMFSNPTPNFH

As for `CN1CCCNC(=O)[C@H](CO)NCc2cc(Br)cc(c2)Nc2nccc(n2)-c2ccc(cc2)C1` [Compound 110], the IC50 in assay [1] was 0.759 µM; in assay [2] it was 2.57 µM; in assay [3], 6.46 µM; in assay [4] it was more than 10 µM; in assay [5] it was more than 10 µM; in assay [6] it was more than 10 µM. Also, the IC50 in assay [7] is more than 10 µM; in assay [8] it was more than 10 µM; in [9], 8.51 µM; in assay [10] it was 5.5 µM.

`O=C1NCCCNCc2ccc(cc2)-c2ccnc(n2)Nc2ccc(N3CCOCC3)c(c2)CN2CCC1CC2` [Compound 69]: the IC50 is 1.58 µM in assay [1]; more than 10 µM in assay [5]; more than 10 µM in assay [8]; 2.63 µM in assay [11]; 5.62 µM in assay [9]; more than 10 µM in assay [10]. Besides, the IC50 in [12] was more than 10 µM.

For the molecule `CC1(C)NCc2cc(ccc2N2CCOCC2)Nc2nccc(n2)-c2cccc(c2)OCCCNC1=O` [Compound 90], the IC50 in assay [1] is 0.646 µM; in assay [2] it was more than 10 µM; in [3], 0.417 µM; in assay [4] it was 4.68 µM; in assay [5], more than 10 µM; in assay [6], more than 10 µM. Further, the IC50 was more than 10 µM in assay [7]; 1.7 µM in assay [8]; 8.71 µM in assay [11]; 4.57 µM in [9]; 6.03 µM in [10]; 5.37 µM in assay [12].

With `COc1ccc2cc1CN(C)CCNC(=O)[C@H](C)NCc1cc(ccc1N1CCOCC1)Nc1nccc-2n1` [Compound 116], the IC50 in [1] was 1.48 µM; in assay [2], more than 10 µM; in assay [3], more than 10 µM; in assay [4], more than 10 µM; in [5] it was more than 10 µM; in [6] it was more than 10 µM. Further, the IC50 in assay [7] was more than 10 µM; in assay [8], 4.07 µM; in assay [11] it was more than 10 µM; in assay [9], 5.75 µM; in assay [10] it was more than 10 µM; in assay [12], more than 10 µM.

As to `O=C1NCCNCc2ccc(cc2)-c2ccnc(n2)Nc2ccc(N3CCOCC3)c(c2)CN2C[C@H](O)C[C@@H]12` [Compound 166], the IC50 in [1] was 3.55 µM; in assay [5], more than 10 µM; in [8] it was more than 10 µM; in assay [9], more than 3.02 µM; in assay [10], more than 10 µM; in assay [12], more than 10 µM.

In the case of `O=C1NCCCOc2cccc(c2)-c2ccnc(n2)Nc2ccc(N3CCOCC3)c(c2)CN2CCC1CC2` [Compound 93], the IC50 in [1] was 1.12 µM; in assay [2] it was more than 10 µM; in assay [3], 4.68 µM; in assay [4], more than 10 µM; in [5], more than 10 µM; in assay [6], more than 10 µM. The IC50 in [7] was more than 10 µM; in assay [8], 3.63 µM; in assay [11] it was more than 10 µM; in assay [9], more than 10 µM; in assay [10] it was 7.24 µM; in assay [12], 10 µM.

With `COc1ccc2cc1CN1CCN(CC1)CC(=O)N(C)CCCN(C)c1ccc(cn1)-c1ccnc(n1)N2` [Compound 148], the IC50 in assay [8] was 0.316 µM; in [11], more than 10 µM; in [9], 4.68 µM; in assay [10], more than 10 µM; in assay [12], more than 10 µM.

`COc1ccc2cc1CNCCCNC(=O)[C@@H]1C[C@@H](O)CN1Cc1cc(ccc1N1CCOCC1)Nc1nccc-2n1` [Compound 176]: the IC50 in assay [1], in assay [5], in assay [8], in [11], in assay [9] and in assay [10] was more than 10 µM throughout. For the same molecule, the IC50 in [12] is more than 10 µM.

`O=C1NCCCNCc2ccc(cc2)-c2ccnc(n2)Nc2ccc(N3CCOCC3)c(c2)CN2CCC[C@@H]12` [Compound 172]: the IC50 in assay [1] is 5.37 µM; in assay [5], more than 10 µM; in assay [8], more than 10 µM; in [9] it was 4.79 µM; in assay [10] it was more than 10 µM; in assay [12], more than 10 µM.

For the molecule `CN1CCNC(=O)[C@H](CO)NCc2cc(Br)cc(c2)Nc2nccc(n2)-c2ccc(cc2)C1` [Compound 121], the IC50 was 1.91 µM in assay [8]; 6.03 µM in assay [11]; 7.24 µM in assay [9]; 10 µM in assay [10]; 7.76 µM in assay [12].

The values are drawn from patent US8609836B2, “4-aryl-2-anilino-pyrimidines” (Janssen Pharmaceutica NV, priority 2008, dated 2013).
